Assay [1] has as its system phosphorylated myosin light chain (pMLC). In words: pMLC (active NMII) redistribution in Ng-inoculated polarized T84 cells (3D-CFM). To be noted: for junction:non-junction FIR of pMLC: polarized T84, Ng 6 h (Y27632: MS11ΔOpa). Format: cell-based, human. The method, then: Ng induce and Opa suppresses the redistribution of active non-muscle myosin II in polarized and endocervical epithelial cells. […] We examined the cellular distribution of active NMII after 6-h incubation with Ng, using antibody specific for phosphorylated myosin light chain (pMLC) and 3D-CFM. In uninfected polarized T84 (FIGS. 5A and 5C) and HEC-1-B cells (FIG. 10), pMLC was primarily localized at the apical junction. The polarized distribution of pMLC at the apical surface was quantified by the FIR of pMLC at the apical to the lateral (Apical:Lateral) membrane areas in individual cells using CFM images scanning across the apical and basolateral surfaces (FIGS. 5A and 5B). The polarized distribution pMLC at the apical junction was quantified by the FIR of pMLC at the junction to non-junction (Junction:Non-junction) areas of the apical region using CFM images scanning through the apical junction (FIGS. 5C and 5D). The apical inoculation of MS11Opa+ and MS11ΔOpa caused significant increases in apical:lateral FIR in both polarized T84 (FIGS. 5A and 5B) and HEC-1-B cells (FIG. 10), compared to the no Ng control. There were also significant increases in the junction:non-junction FIR in infected polarized T84 cells, compared to non-infected cells (FIGS. 5C and 5D). […] We further noticed that NMII at the apical surface appeared to accumulate at Ng adherent sites (FIG. 5A, middle panels, arrows).
(§1) Immunofluorescence analysis of polarized epithelial cells. Cells were pretreated with or without NMII kinase inhibitors, Y27632 (10 μM, EMD Millipore), ML-7 (10 μM, EMD Millipore) and PIK (100 μM) or Ca2+ inhibitors, 2APB (10 μM, EMD Millipore) and BAPTA (50 μM, EMD Millipore) for 1 h, and incubated with Ng in the presence or absence of the inhibitors for 6 h. Cell were washed and fixed with 4% paraformaldehyde, permeabilized with 1% Triton X100, and stained with anti-E-cadherin (BD Bioscience), anti-pMLC (Cell Signaling Technology, Carlsbad, Calif.), anti-Ng antibodies, and DAPI for nuclei. Cells were analyzed by CFM. Images were acquired as Z-series of 0.37 μm slices, and 3D composites obtained. Epithelial exfoliation will be quantified using xz images as described for the tissue explants. The distribution of E-cadherin and pMLC was quantitatively analyzed by measuring the FIR at the apical junctional to the cytoplasmic area (from xy images) or at the apical to lateral surface area (from xz images) in individual cells.

For assay [2], the system named is cytoplasmic Ca2+. Kind of assay: Calcium imaging of Ng-inoculated polarized epithelial cells (FluoForte, Fluo-4). In kind it is cell-based, human. To be noted: MS11Opa+ and MS11ΔOpa-inoculated polarized epithelial cells, 4 h; 2APB 10 μM, BAPTA 50 μM. From the text:
Ng inoculation induces Ca^2+-dependent redistribution of active NMII in polarized epithelial cells. A major upstream signaling molecule of MLCK is calmodulin that is activated by Ca^2+. To investigate if Ca^2+ is involved in Ng induced redistribution of active NMII, we determined if Ng inoculation would induce Ca^2+ flux in polarized epithelial cells. We used two Ca^2+ indicators, FluoForte (FIGS. 7A and 7B) and Fluo-4 (FIG. 11) to determine the cytoplasmic Ca^2+ level. Polarized T84 (FIGS. 7A and 7B, and FIG. 11A and FIG. 11B) and HEC-1-B (FIG. 11C and FIG. 11D) were incubated apically with MS11Opa+ or MS11ΔOpa for 4 h. The cells were then loaded with the fluorescent Ca^2+ indicator, and the cell membrane marked by the membrane dye CellMask. Cells were imaged using 3D-CFM (FIG. 7A, and FIGS. 11A and 11C). The mean fluorescence intensity (MFI) of the Ca^2+ dyes in individual cells was measured to estimate the cytoplasmic level of Ca^2+ (FIG. 7B, and FIGS. 11B and 11D). […]
Calcium imaging. […] To quantify the intracellular Ca^2+ level, the cytoplasmic region of individual cells was manually selected based on the CellMask staining in randomly acquired confocal images, and the mean fluorescent intensity (MFI) of Fluoforte and Fluo-4 in the cytoplasmic region was measured using the NIH ImageJ software.

Assay [3] relates to Neisseria gonorrhoeae MS11. Kind of assay: Ng adherence, invasion, and transmigration assays on polarized epithelial cells. Format: cell-based. The procedure: Ng adherence, invasion, and transmigration assays. The assays were performed as previously described. Briefly, polarized epithelial cells that were pretreated with or without the inhibitors for 1 h were incubated apically with Ng at 37° C. for 3 h for adherence and 6 h for invasion and transmigration assays with or without the inhibitors. Ng in the basolateral media were cultured and counted as transmigrated bacteria. Cells were washed and lysed to count adherent Ng. Cells were treated with gentamicin, washed, and lysed to count bacteria that were resistant to gentamicin treatment as invaded Ng.

For assay [4], the system named is polarized T84 cells. In words: Ng-induced exfoliation of polarized T84 monolayers (3D-CFM). In kind it is cell-based, human. To be noted: 6 h, inhibitor 1 h before and during, ML-7 10 μM, PIK 100 μM, Y27632 10 μM.
Source text: To quantify epithelial exfoliation, the number of Ng associated cells localized on the top of the epithelial monolayer (exfoliated) and the total number of Ng associated epithelial cells was counted by visual inspection in each randomly acquired image, to determine the percentage of exfoliated cells. To estimate the level of Ng penetration into the subepithelium, the number of non-exfoliated epithelial cells (in clearly visible epithelial monolayers) with basal Ng staining and the total number of Ng associated epithelial cells were visually counted to calculate the percentage of infected epithelial cells with Ng penetration into the basolateral side. To evaluate the disruption of the apical junction, the number of Ng associated epithelial cells that lost continuously apical staining of the junctional protein ZO1 and the total number of Ng associated epithelial cells were visually counted to calculate the percentage of Ng associated epithelial cells with apical junction disassembly. To quantify the redistribution of pMLC, the fluorescence intensity ratios (FIR) of pMLC staining at the apical to lateral in individual epithelial cells were determined using average FI as previously described.
as §1

The test system of assay [5] is polarized T84 cells. Kind of assay: Exfoliation of polarized T84 cells treated with inhibitors alone, without Ng. In kind it is cell-based, human. To be noted: no Ng inoculation, 6 h. The procedure: Polarized T84 cells were treated with inhibitors for 6 h, fixed, stained to visualize the cell nuclei, and imaged by 3D-CFM. The percentage of cell moving above the epithelial monolayer (dash lines) was determined from three independent experiments. Scale bar, 5 μm. *p≤0.05.
as §1

The mark [6] stands for this setting: ML-7 10 μM, PIK 100 μM, Y27632 10 μM, 2APB 10 μM, BAPTA 50 μM.

As for `O=C(O)CN(CC(=O)O)c1ccccc1OCCOc1ccccc1N(CC(=O)O)CC(=O)O` [BAPTA], the “accumulation of pMLC at Ng adherent sites” value in assay [1] (polarized T84, Ng 6 h) was “decreased”. Besides, the “junction:non-junction FIR of pMLC” value in assay [1] (setting [6]) is listed as “decreased”. For the same compound, the “apical:lateral FIR of pMLC” value in assay [1] (polarized T84, Ng 6 h, ML-7 10 μM, PIK 100 μM, Y27632 10 μM, 2APB 10 μM, BAPTA 50 μM) was “decreased”. Besides, in assay [2], the “MFI of the Ca2+ indicators (cytoplasmic Ca2+ level)” value is on record as “back to the basal level”.
Regarding `C[C@@H](N)[C@H]1CC[C@H](C(=O)Nc2ccncc2)CC1` [Y27632], the “junction:non-junction FIR of pMLC” value in assay [1] (setting [6]) is listed as “further increased”. In assay [3] (6 h, ML-7 10 μM, PIK 100 μM, 2APB 10 μM, Y27632 10 μM), the “transmigration of MS11ΔOpa across the polarized T84 monolayer” value is reported as “had no impact”. Further, the “Ng adherence to polarized T84 cells” value in assay [3] (MS11ΔOpa, 3 h, with inhibitors) was “had no impact”. The “Ng invasion into polarized T84 cells (gentamicin resistance)” value in assay [3] (MS11ΔOpa, 6 h, with inhibitors) was “had no impact”. Further, in assay [4] (MS11Opa+), the “exfoliation of MS11Opa+-infected epithelial cells from T84 monolayers” value is recorded as “did not significantly change the percentage of epithelial exfoliation”. For the same compound, the “exfoliation of MS11ΔOpa-infected epithelial cells from T84 monolayers” value in assay [4] (MS11ΔOpa, 2APB 10 μM) was “did not significantly change the percentage of epithelial exfoliation”.
As for `Cc1ccc2c(c1)C(=O)C1(O)CCN(c3ccccc3)C1=N2` (centres unmarked) [blebbistatin], the “epithelial exfoliation with inhibitors alone” value in assay [5] is “increased epithelial exfoliation”.

The record behind these values is patent publication US10660933B2, “Compositions and methods for inhibition of bacterial infections in human endocervix” (priority 2015, dated 2020).
